The source of these data is patent US20210052480A1, “USE OF CYCLIC PEPTIDES IN COSMETIC” (Sederma, priority 2018, published 2021).

Common to all, as to type: cell-based
Test [1] concerns HNFs. Put plainly: Comparative collagen I synthesis by fibroblasts, ELISA. The conditions noted are these: 3 days. The procedure: HNFs were grown in 24-well plates for 24 hours. The cells were placed in contact or not with test products at different concentrations for 3 days. The collagen synthesis was evaluated by ELISA assay on the culture supernatant and the result was reduced to the number of cells.

Test [2] concerns HNFs. Put plainly: Comparative elastin synthesis by fibroblasts, ELISA. Conditions: 12.5 ppm; 3 days. Background: ELISA stands for enzyme-linked immunosorbent assay.
Test [3] relates to FHNs. In words: Comparative collagen I synthesis by fibroblasts, IMF. Conditions: 6 days. The procedure:
FHNs were grown in 24-well plates for 24 hours. The cells were placed in contact with test products (or their excipient) at different concentrations for 6 days. The collagen I produced by the cells was then quantified by immunofluorescence on the fixed mats, and the result was then reduced to the number of cells.

On to “Cyclo(-Met-Leu-Ile-Pro-Pro-Phe-Phe-Val-Ile) (MLIPPFFVI; cyclic; Synthetic peptide or Linum usitatissimum; (1)..(1) M can be oxidized into sulfoxide or sulfone; (1)..(9) Cyclic peptide) [Linusorb B2]”, for which the entries for the “Collagen I production (ELISA method), comparison” value in test [1] (10 ppm) and in test [1] (15 ppm) were “+36.2%; p <0.01” and “+39.2%; p <0.01”, respectively. The “Production of elastin (ELISA method), comparison” value in test [2] is on record as “+43%; p <0.05”. Also, the “Production of collagen I (IMF method), comparison” value in test [3] (5 ppm) is “+34.2; dns”; in test [3] (10 ppm) it was “+41.8; p <0.01”.

With cyclo(ILVPPFFLI) [Linusorb B3], the “Collagen I production (ELISA method), comparison” value in test [1] (10 ppm) is reported as −0.4%; nds; in test [1] (15 ppm) it was “+62.6%; p <0.01”. For the same substance, the “Production of elastin (ELISA method), comparison” value in test [2] is “+58%; p <0.05”. In addition, the “Production of collagen I (IMF method), comparison” value in test [3] (5 ppm) is given as “+111.1; p <0.01”; in test [3] (10 ppm), “+121.7; p <0.01”.
